Data set [1] has as its target T1, Human immunodeficiency virus type 1 reverse transcriptase (Human immunodeficiency virus 1, UniProt Q72547). Kind of data set: Inhibition of HIV-1 RNase H.
Data set [2] is described as follows: Inhibition of DNA polymerase (unknown origin). Also on record: species or system Homo sapiens.
Data set [3] concerns the target T1, Human immunodeficiency virus type 1 reverse transcriptase. Kind of data set: Inhibition of recombinant HIV-1 reverse transcriptase associated RNase H expressed in Escherichia coli BL21 (DE3) using 5-GTTTTCTTTTCCCCCCTGAC-3 Fluorescein/5CAAAAGAAAAGGGGGGACUG-3-Dabcyl as substrate incubated for 1 hr by multilabel counter plate reader method.
Data set [4] is described as follows: Inhibition of HIV-1 RNA-dependent […]. The arrangement: species or system Human immunodeficiency virus 1.
Data set [5] deals with Human immunodeficiency virus 1. The data set is described as follows: Antiviral activity against HIV-1 harboring L100I mutant infected in human MT4 cells assessed as virus-induced cytopathicity treated for 5 days by MTT assay. The note with it: Human immunodeficiency virus 1, MT4, 120 h. Format: functional, organism-based.
The target of data set [6] is T1, Human immunodeficiency virus type 1 reverse transcriptase. The data set is described as follows: Inhibition of N-terminal 6-his-tagged HIV-1 reverse transcriptase RNase H (427 to 560 residues) transfected in Escherichia coli BL21 (DE3).
Data set [7] is described as follows: Inhibition of Escherichia coli DNA polymerase I.
Data set [8] relates to Human immunodeficiency virus 1. Kind of data set: Antiviral activity against wild-type HIV-1 IIIB infected in human MT4 cells assessed as virus-induced cytopathicity treated for 5 days by MTT assay. To be noted: Human immunodeficiency virus 1, IIIB, MT4, 120 h. It is filed as functional, organism-based.
The target of data set [9] is T1, Human immunodeficiency virus type 1 reverse transcriptase. Kind of data set: Inhibition of recombinant HIV-1 reverse transcriptase associated RNA-dependent DNA polymerase activity incubated for 30 mins by liquid scintillation method.
In data set [10] the test system is Human immunodeficiency virus 1. The data set is described as follows: Antiviral activity against HIV-1 harboring reverse transcriptase […] mutant infected in human MT4 cells assessed as reduction in virus-induced cytopathic effect. Format: functional, organism-based. The note with it: Human immunodeficiency virus 1, MT4. In general terms: Cytopathic effects are the visible damage that an infection or toxin causes in cultured cells.

Data set [11] can be described thus: Cytotoxicity against HEK-293T cells assessed as reduction in cell growth measured for 72 hrs by MTT assay. It is filed as toxicity, cell-based. The note with it: human.
Data set [12] concerns the target T1, Human immunodeficiency virus type 1 reverse transcriptase. Kind of data set: Inhibition of HIV-1 reverse transcriptase associated RNA-dependent DNA polymerase.
The target is the same in data set [13]. Kind of data set: Inhibition of HIV-1 RNase H polymerase activity.
The test system of data set [14] is Hepatitis B virus. The data set is described as follows: Antiviral activity against HBV infected in human HepDES19 cells assessed as reduction in cccDNA accumulation by southern blot analysis. It is filed as functional, organism-based.
Data set [15] in a line: Cytotoxicity against african green monkey Vero E6 cells incubated for 24 hrs by Cell-titer 96 cell proliferation assay. Format: toxicity, cell-based, Vero C1008. To be noted: chlorocebus sabaeus.
For data set [16], the system named is Human immunodeficiency virus 1. Kind of data set: Antiviral activity against HIV1. It is filed as functional, organism-based.
Data set [17] has as its system Hepatitis B virus. The data set is described as follows: Antiviral activity against HBV infected in AML12HBV10 cells assessed as reduction viral replication incubated for 48 hrs. The note with it: AML12HBV10, 48 h. It is filed as functional, organism-based.
Data set [18] concerns Human alphaherpesvirus 2. The data set is described as follows: Antiviral activity against HSV-2 infected in African green monkey Vero cells assessed as reduction in virus induced cytopathogenicity by plaque reduction assay. It is filed as functional, organism-based. The note with it: Human alphaherpesvirus 2, Vero.
Data set [19] deals with Human alphaherpesvirus 1. Kind of data set: Antiviral activity against HSV-1 KOS infected in African green monkey Vero cells assessed as reduction in virus induced cytopathogenicity by plaque reduction assay. It is filed as functional, organism-based. To be noted: Human alphaherpesvirus 1, KOS.
The test system of data set [20] is Human alphaherpesvirus 1. Kind of data set: Antiviral activity against HSV-1 infected in African green monkey Vero cells by plaque reduction assay. Format: functional, organism-based. To be noted: Human alphaherpesvirus 1, Vero.
The test system of data set [21] is TZM. The data set is described as follows: Cytotoxicity against human TZM-bl cells assessed as reduction in viability incubated for 48 hrs by MTT assay. It is filed as functional. (Tetrazolium dyes change colour on reduction, which living cells bring about.)
The subject of data set [22] is Human immunodeficiency virus 1. Kind of data set: Antiviral activity against wild type HIV-1 IIIB infected in human MT4 cells assessed as protection against virus-induced cytopathic effect incubated for 5 days by MTT assay. Format: functional, organism-based. To be noted: Human immunodeficiency virus 1, IIIB, MT4, 120 h.

Consider 25 molecules from ChEMBL document CHEMBL5518155, “Recent advances on dual inhibitors targeting HIV reverse transcriptase associated polymerase and ribonuclease H” (Eur J Med Chem, 2023).

As for `COc1ccc2ccccc2c1/C=N/NC(=O)c1ccc(O)c(O)c1`, the figures for the IC50 in data set [1] and in [2] were 15 µM and greater than 50 µM, respectively.

In the case of `NC(=O)c1c(N)sc2c1CCCCC2`, the IC50 in data set [3] came to 2 µM.

`O=C1Nc2ccccc2/C1=N/Nc1nc(-c2ccc(O)c(O)c2)cs1` displayed an IC50 in data set [4] of 1.4 µM.

Take `COC(=O)c1c(C)cc(O)c(=O)c(O)c1Br`: the EC50 in data set [5] came to 2.2 µM.

For `CC(C)(C)c1ccc(C(=O)N/N=C/c2c(O)ccc3ccccc23)cc1`, the half-inhibitory concentration (IC50) amounted to 3.5 µM in [6], 12.5 µM in data set [7] and 0.8 µM in data set [9]. In data set [8], the EC50 was 1.5 µM.

For `O=C(Oc1ccc2c(c1OC(=O)c1ccccc1)C(=O)c1ccccc1C2=O)c1ccccc1`, the IC50 in [4] came to 12 µM. In addition, the EC50 in data set [10] was greater than 100 µM. Besides, in data set [11], the half-maximal cytotoxic concentration (CC50) at 72 h was roughly 100 µM.

Molecule `Nc1ccc(S(=O)(=O)N2CCN(C(=O)c3cc(O)c(O)c(O)c3)CC2)cc1` displayed an IC50 in [12] greater than 50 µM.

As to `N#Cc1ccc(-c2csc(NN=C3C(=O)Nc4ccccc43)n2)cc1`, the half-maximal inhibitory concentration (IC50) came out at 1.3 µM in data set [1] and 9.5 µM in data set [9].

Consider `Cn1c(-c2ccc(-c3ccccc3)cc2)cs/c1=N/N=C1\C(=O)Nc2ccc(Cl)cc21`, for which the IC50 in data set [1] amounted to 10 µM; in data set [9], 9.8 µM.

As to `O=C(Nc1sc2c(c1C(=O)Nc1ccccn1)CCCCC2)c1ccc(O)c(O)c1`, in data set [3], the IC50 amounted to 0.84 µM.

For `COC(=O)c1c(C)cc(OC)c(=O)c(O)c1OC`, 13.5 µM corresponded to half-maximal inhibition in data set [13] (IC50). Also, in data set [14], the EC50 is 5.6 µM.

As for `COc1ccccc1C(=O)N1CCC(NC(=O)c2cc(O)c(O)c(O)c2)CC1`, the half-inhibitory concentration (IC50) in [13] was determined as 13.1 µM; in [12], 39.9 µM.

`COc1cc(OC)cc(OC(=O)c2ccc(C(F)(F)F)cc2Nc2cc(Cl)ccc2C)c1`: the CC50 at 24 h in [15] is greater than 50 µM. The IC50 in data set [4] and in data set [12] was 16.1 µM each time. The molecule also showed an EC50 in [16] of 5 µM.

As for `O=C(Nc1nc2n(n1)C(c1ccccc1)C=C(c1ccccc1)N2)c1ccc(O)c(O)c1` (stereo not drawn), the figures for the IC50 in data set [6] and in data set [12] were 1.86 µM and 20.5 µM, respectively.

As to `COc1ccc(-c2cccc(C(N)=O)c2)cc1/C=N/Nc1nc(-c2ccc([N+](=O)[O-])cc2)cs1`, the values for the half-inhibitory concentration (IC50) in [4] and in data set [1] were 8 µM and 4.5 µM, respectively.

For the molecule `COC(=O)c1c(C)cc(OC)c(=O)c(O)c1O`, the EC50 in [17] was determined as 0.93 µM.

Regarding `Cc1cc(O)c(=O)c(O)c(O)c1C(=O)c1ccc(-c2ccccc2)cc1`, the values for the EC50 in data set [18], in data set [19] and in [20] were 0.05 µM, 0.052 µM and 0.052 µM, respectively.

With `Nc1nn(C(=O)c2ccc(Cl)cc2)c(N)c1C(=S)Nc1ccccc1`, the CC50 in [21] stood at 44 µM. Besides, the concentration for half-maximal inhibition (IC50) in [13] turned out to be 7 µM; in data set [12], 17 µM. Moreover, the EC50 in data set [22] worked out at 25 µM.

In the case of `COc1cc(C)c(C(=O)c2ccc(-c3ccccc3)cc2)c(O)c(O)c1=O`, in [20], the response was half-maximal at 0.22 µM (EC50).

Take `COc1ccc2ccccc2c1/C=N/NC(=O)c1ccc(C(C)(C)C)cc1`: the IC50 is 3 µM in data set [1] and 2 µM in [2].

`COc1c(/C=C/C(=O)c2ccc(-c3ccccc3)cc2)ccc2ccccc12`: the values for the IC50 in [4] and in [1] were 4 µM and 6 µM, respectively.

Regarding `O=c1oc(-c2ccc(O)c(O)c2)nc2sc3ccccc3c12`, in [3], the IC50 was 0.53 µM.

`COC(=O)c1c(C)cc(O)c(=O)c(O)c1O` registered an IC50 in data set [13] of 1.5 µM. Moreover, the EC50 in data set [18] is 0.4 µM; in data set [14], 6 µM; in data set [19], 0.19 µM; in [20] it was 0.19 µM.

Turning to `CC1=CC(c2ccccc2)n2nc(NC(=O)CCCc3ccc(C)cc3)nc2N1` (stereo not drawn), the values for the IC50 in data set [6] and in data set [12] were 13.1 µM and greater than 100 µM, respectively.

Consider `O=C1c2ccccc2C(=O)c2c1ccc(O)c2O` [ATHRAQUINONES A], for which the results for the IC50 in data set [4] and in [3] were 79 µM and greater than 100 µM, respectively.

By IC50 is commonly meant the point on the concentration scale where inhibition reaches its midpoint. For orientation: EC50 means the midpoint of the concentration-response curve. Broadly, the CC50 is the concentration that lowers cell viability or growth by half.
